The values below come from patent US11207283B2 (priority 2016, dated 2021).

By kinact/KI is commonly meant the second-order rate constant of inactivation. In general, Ki refers to the equilibrium dissociation constant of an inhibitor or competing ligand from its target.

The subject of one test is GABA-AT. The settings on record: cited from earlier work.
Test [1] has as its system P. falciparum parasite, D6 (Sierra Leone). The test can be described thus: Malaria SYBR Green I-based fluorescence (MSF) assay. The class given is cell-based, Plasmodium falciparum. The settings on record: concentrations up to 10000 ng/mL, data not shown.
Another test deals with TgOAT. As to conditions: for KI (inactivation): read-out: KI (inhibition constant of inactivation), 10 mM L-ornithine; for KI (inactivation) / kinact/KI / kinact (rate constant of enzyme inactivation): time-dependent inactivators; for KI (inactivation) / kinact (rate constant of enzyme inactivation): pH 8.0, 37° C.; for activity in inactivating TgOAT (in words): summary of Table 1; for selectivity of inactivation, TgOAT versus GABA-AT and human OAT (in words): compared with literature data on GABA-AT and human OAT; for Ki: read-out: Ki (reversible inhibition), reversible inhibitors, calculated from the IC50 value.

In test [2] the test system is Type I T. gondii tachyzoites. Put plainly: Effect of TgOAT inactivators on T. gondii in vitro (YFP RH tachyzoites in HFF). The class given is cell-based, Toxoplasma gondii. The settings on record: HFF host cells, 72 hours, tested into the millimolar range. The protocol: HFFs were grown to confluence in black, flat-bottomed 96-well microplates. […] Control triplicates with only fibroblasts and with pyrimethamine and sulfadiazine (the current standard of treatment of T. gondii infection) were also conducted. The cells and parasites were then incubated at 37° C. for 72 hours. Fluorescence was measured using a Bio-Tek Synergy™ H4 Hybrid Multi-Mode Microplate Reader.

The target in another test is T1, human OAT (Homo sapiens, UniProt P04181).
T1 sequence (P04181 36-439 limits assumed): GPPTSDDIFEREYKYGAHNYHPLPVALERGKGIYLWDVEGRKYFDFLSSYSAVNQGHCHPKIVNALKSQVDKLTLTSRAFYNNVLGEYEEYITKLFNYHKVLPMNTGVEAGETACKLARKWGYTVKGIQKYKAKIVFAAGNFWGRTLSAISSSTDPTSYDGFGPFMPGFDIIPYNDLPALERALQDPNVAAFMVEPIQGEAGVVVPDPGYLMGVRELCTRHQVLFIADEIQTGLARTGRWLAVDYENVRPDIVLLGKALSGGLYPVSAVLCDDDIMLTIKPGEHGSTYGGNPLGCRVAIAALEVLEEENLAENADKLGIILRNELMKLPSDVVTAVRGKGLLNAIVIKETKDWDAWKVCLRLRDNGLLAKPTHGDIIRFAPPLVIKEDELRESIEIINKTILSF
As to conditions: cited from earlier work.

Test [3] concerns glutamate decarboxylase (GAD). The settings on record: cited from earlier work.
The test system of test [4] is aspartate aminotransferase (AspAT). As to conditions: cited from earlier work.

For `NC(CF)CCC(=O)O` (stereo not shown) [5-Fluoro-4-aminopentanoic acid, reference compound], in the test on GABA-AT, the “activity against GABA-AT (in words)” value was “very efficient inactivator”.

As to `N[C@H]1C[C@@H](C(=O)O)CC1=C(F)F` [Compound 1], the “activity against GABA-AT (in words)” value in the test with GABA-AT is recorded as “extremely potent inactivator”. Also, the “antimalarial activity in live-cell parasite assay” value (“antimalarial activity” for short) in test [1] was “no antimalarial activity”. Besides, in the test with TgOAT, the KI (inactivation) was found to be 4.4 µM, the “activity in inactivating TgOAT (in words)” value was “high activity in inactivating TgOAT”, the kinact/KI amounted to 41670 M⁻¹ s⁻¹ and the “kinact (rate constant of enzyme inactivation)” value was 11 min⁻¹. In test [2], the “inhibition of tachyzoite replication in vitro” value (“inhibition” below) was “no effects on active T. gondii infection”. Also, the “activity against human OAT (in words)” value on human OAT is on record as “potent inactivator”.

Regarding `NC1CC(C(=O)O)CC1=C(C(F)(F)F)C(F)(F)F` (stereo not shown) [Compound 2], in the test on GABA-AT, the “activity against GABA-AT (in words)” value was “weak reversible inhibitor”. Besides, in test [1], the “antimalarial activity” value is given as “no antimalarial activity”. Further, in the test with TgOAT, the KI (inactivation) was determined as 4.8 µM, the “activity in inactivating TgOAT (in words)” value was “high activity in inactivating TgOAT”, the kinact/KI is 15300 M⁻¹ s⁻¹ and the “kinact (rate constant of enzyme inactivation)” value is 4.4 min⁻¹. Moreover, the “inhibition” value in test [2] is recorded as “no effects on active T. gondii infection”. For the same compound, at human OAT, the “activity against human OAT (in words)” value is reported as “highly potent inactivator”.

For the compound `NC1CC(C(=O)O)CC1=CC(F)(F)F` (stereo not shown) [Compound 3], in the test on TgOAT, the KI (inactivation) amounted to 30 µM, the kinact/KI stood at 83.3 M⁻¹ s⁻¹ and the “kinact (rate constant of enzyme inactivation)” value came out at 0.15 min⁻¹.

As to `NC1CC(C(=O)O)CC1=CC(F)(F)F` (stereo not shown) [Compound 4], in the test on TgOAT, the KI (inactivation) worked out at 21 µM, the kinact/KI is 183 M⁻¹ s⁻¹ and the “kinact (rate constant of enzyme inactivation)” value came to 0.23 min⁻¹.

On to `NC1CC(C(=O)O)CC1=C(Cl)Cl` (stereo not shown) [Compound 5], for which the “activity against GABA-AT (in words)” value in the test with GABA-AT was “very weak reversible inhibitor”. Further, the “antimalarial activity” value in test [1] is recorded as “no antimalarial activity”. In addition, in the test with TgOAT, the “selectivity of inactivation, TgOAT versus GABA-AT and human OAT (in words)” value (“selectivity of inactivation” below) is “high specific inactivation towards TgOAT but not GABA-AT or human OAT”; the KI (inactivation) amounted to 15 µM; the “activity in inactivating TgOAT (in words)” value is on record as “high activity in inactivating TgOAT”; the kinact/KI turned out to be 4830 M⁻¹ s⁻¹. Besides, the “kinact (rate constant of enzyme inactivation)” value at TgOAT is 4.4 min⁻¹. The “inhibition” value in test [2] is recorded as “no effects on active T. gondii infection”. At human OAT, the “activity against human OAT (in words)” value was “very weak reversible inhibitor”.

Regarding `NC1CC(C(=O)O)C=C1C(F)(F)C(F)(F)F` (stereo not shown) [Compound 6], in the test with TgOAT, the KI (inactivation) was 21 µM, the second-order inactivation constant (kinact/KI) was 167 M⁻¹ s⁻¹ and the “kinact (rate constant of enzyme inactivation)” value stood at 0.21 min⁻¹.

On to `NC1CC(C(=O)O)CC1F` (stereo not shown) [Compound 7], for which, in the test on TgOAT, the KI (inactivation) came to 2100 µM, the kinact/KI was 86.7 M⁻¹ s⁻¹ and the “kinact (rate constant of enzyme inactivation)” value worked out at 11 min⁻¹.

As for `NC1CC(C(=O)O)CC1(F)F` (stereo not shown) [Compound 8], the “off-target activity at GAD (in words)” value in test [3] is “significant”. In the test with TgOAT, the KI (inactivation) was 130 µM, the kinact/KI turned out to be 1000 M⁻¹ s⁻¹ and the “kinact (rate constant of enzyme inactivation)” value came to 7.8 min⁻¹.

As for `NC1CC(C(=O)O)CC1Br` (stereo not shown) [Compound 9], in the test on TgOAT, the KI (inactivation) is 2600 µM, the kinact/KI came out at 31.7 M⁻¹ s⁻¹ and the “kinact (rate constant of enzyme inactivation)” value was 5.0 min⁻¹.

As for `NC1C(F)CC(C(=O)O)C1Br` (stereo not shown) [Compound 10], in the test with TgOAT, the KI (inactivation) is 110 µM, the kinact/KI turned out to be 583 M⁻¹ s⁻¹ and the “kinact (rate constant of enzyme inactivation)” value amounted to 3.9 min⁻¹.

For `NCc1c(CC(=O)O)cccc1C(F)(F)F` [Compound 11], the “activity against GABA-AT (in words)” value with GABA-AT is “weak reversible inhibitor”. Besides, the “antimalarial activity” value in test [1] is “no antimalarial activity”. Also, in the test on TgOAT, the “selectivity of inactivation” value is “high specific inactivation towards TgOAT but not GABA-AT or human OAT”; the KI (inactivation) was 15 µM; the “activity in inactivating TgOAT (in words)” value was “high activity in inactivating TgOAT”; the kinact/KI worked out at 6000 M⁻¹ s⁻¹. Further, the “kinact (rate constant of enzyme inactivation)” value at TgOAT was determined as 5.4 min⁻¹. In addition, the “inhibition” value in test [2] is given as “no effects on active T. gondii infection”. In addition, on human OAT, the “activity against human OAT (in words)” value is recorded as “weak inactivator”.

Regarding `C[C@@H](F)[C@@H](N)CCC(=O)O` [Compound 12], on TgOAT, the Ki was 2900 µM.

As to `NCc1cocc1C(=O)O` [Compound 13], the Ki at TgOAT is > 5000 µM.

Turning to `NCc1cscc1C(=O)O` [Compound 14], the Ki on TgOAT is 4200 µM.

As to `NCc1csc(C(=O)O)c1` [Compound 15], at TgOAT, the Ki was 4900 µM.

Turning to `NCc1ccc(C(=O)O)s1` [Compound 16], the Ki at TgOAT was > 5000 µM.

On to `NCc1c[nH]c(C(=O)O)c1` [Compound 17], for which the inhibition constant (Ki) on TgOAT is > 5000 µM.

Consider `N[C@H](CF)CCC(=O)O` [Compound 18, (S)-4-amino-5-fluoropentanoic acid], for which the “activity against GABA-AT (in words)” value in the test with GABA-AT is recorded as “moderate inactivator”. The “antimalarial activity” value in test [1] is listed as “no antimalarial activity”. For the same compound, in the test with TgOAT, the “selectivity of inactivation” value is on record as “high specific inactivation towards TgOAT but not GABA-AT or human OAT”; the KI (inactivation) was 4.6 µM; the “activity in inactivating TgOAT (in words)” value was “high activity in inactivating TgOAT”; the second-order inactivation constant (kinact/KI) was 36670 M⁻¹ s⁻¹. Also, the “kinact (rate constant of enzyme inactivation)” value at TgOAT worked out at 10 min⁻¹. Also, the “inhibition” value in test [2] is “no effects on active T. gondii infection”. The “activity against human OAT (in words)” value at human OAT is reported as “moderate inactivator”.

As for `C=CC(N)CCC(=O)O` (stereo not shown) [Compound 22, 4-am inohex-5-enoic acid, reference compound], the “off-target activity at AspAT (in words)” value in test [4] is given as “weakly affects”. For the same compound, the “off-target activity at GAD (in words)” value in test [3] is on record as “no activity”. In the test with TgOAT, the KI (inactivation) amounted to 440 µM, the kinact/KI was determined as 383 M⁻¹ s⁻¹ and the “kinact (rate constant of enzyme inactivation)” value came out at 9.9 min⁻¹.

“gabaculine [Compound 23, reference compound]”: the “activity against GABA-AT (in words)” value with GABA-AT was “equally potent irreversible inhibitor”. The KI (inactivation) in the test on TgOAT came out at 0.82 µM.
